In paper PMC11293026, “Light-activated azobenzene peptide inhibitor of the PD-1/PD-L1 interaction” (Chemical Communications (Cambridge, England), 2024):
“Also recorded” adds a separate entry of the source. *1 amine or outer side, *2 acyl side, *3 side chain or, on linkers, in order; H or OH if unused. Where a SMILES comes first, the peptide text is derived from it. [ ]: non-standard residue; d: D form. X1 = O=C(Cc1cccc(/N=N/c2cccc(CN[*:1])c2)c1)[*:2]

Columns and labels:
[1] = system: PD-1/PD-L1 interaction between Jurkat-Lucia TCR-hPD-1 and Raji-APC PD-L1 cells; experiment: PD-1/PD-L1 immune checkpoint blockade cell-based assay (InvivoGen), luciferase read-out; parameters: species or system human; conditions: Jurkat/Raji co-culture, 6 h at 37 °C, luminescence; 1 tested as cis isomer (irradiated at 365 nm); triplicate; brackets = 95% CI
Procedure: Fig. 3 (A) HTRF assay with PD-1/PD-L1 and peptides CLP003, cis1 And trans1. (B) PD-1/PD-L1 immune checkpoint blockade assay (Invivogen). Increased luminescence implies PD-1/PD-L1 inhibition between modified Jurkat and Raji cells. Errors are SEM, performed in triplicate. Representative examples of n = 3.
There was concern that during the cellular assay incubation at 37 °C may result in the azobenzene modified peptide relaxing back to the trans isomer. To determine whether 1 was thermally stable to continue with cellular assays, 1 was incubated at 37 °C for 8 h after irradiation at 365 nm for 15 minutes in buffer. […] To explore the activity of 1 in a cellular context, an immune checkpoint blockade assay was performed. The cell-based assay (InvivoGen) consists of Jurkat T cells that are engineered to express luciferase via T cell receptor (TCR) signalling and Raji cells engineered to express PD-L1 on the cell surface. If PD-L1 is bound to PD-1, the luciferase expression is inhibited. […] As such, luciferase activity directly correlates to the PD-1/PD-L1 interaction, measured by luminescence following luciferin addition. […]
The assay was performed following the manufacturer’s protocol. […] The plate was read using a CLARIOstar (BMG Labtech) microplate reader and used following manufacturer’s protocols, reading luminescence at a 4 s start time and 0.1 s […]

PD-1/PD-L1 = conditions: read-out: IC50, PD-1/PD-L1 inhibition of BMS-1; cited from earlier work
From the text: Photo-switchable peptides that have the potential to be switched “on” and “off” through structural changes, present an opportunity for externally controlled immune checkpoint inhibitors.

PD-1/PD-L1 interaction = target: T1, PD-1/PD-L1 interaction (Homo sapiens, UniProt Q9NZQ7); experiment: PD-1/PD-L1 HTRF binding assay (Cisbio); conditions: for IC50: HTRF, 1 h at room temperature, three parameter logistic fit, brackets = 95% confidence interval, read-out: IC50, inhibition of PD-1/PD-L1 (HTRF); for IC50 / Alanine scan of CLP003, inhibition of PD-1/PD-L1 (HTRF) at single concentration: triplicate; for Alanine scan of CLP003, inhibition of PD-1/PD-L1 (HTRF) at single concentration: peptides screened at 1 mM in europium detection buffer, representative of n = 3
T1 construct: purchased Cisbio
Procedure: All peptides were screened at 1 mM in europium detection buffer, BMS-1 (10 μM) was the control, the positive control contained tagged PD-L1 and tagged PD-1, the negative control contained tagged PD-L1 only. Errors are SEM, performed in triplicate. Representative example of n = 3. (B) Example azobenzene modified peptide, peptide 1, predicted to be unstructured in the trans isomer and a turn motif in the cis isomer. Structures predicted with RFAllAtom and Maestro. The arrows between residues in the cis conformation implies the N to C direction. (C) The analytical HPLC traces (254 nm) showing pre-irradiated (red), irradiated at 365 nm for 20 min (blue) and a co-injection of the two samples (green). (D) UV-Vis spectra of 1. […] Post irradiation, and after up to 6 hours in the dark characteristic maxima for the cis isomer at 450 nm is observed. (E) Absorbance at 330 nm over 10 cycles of photoisomerization of peptide 1 after 20 min irradiation at 365 nm, and then isomerisation for 20 min exposed to white light. […]
6. PD-1/PD-L1 HTRF binding assay
This assay was purchased from CisBio and was performed following the manufacturer’s protocol. Tag1-PD-L1 and Tag2-PD-1 was diluted 40-fold from the stock solution with PPI-Europium detection buffer. Anti-Tag1 Eu Cryptate reagent and Anti-Tag2 XL665 antibody was diluted 50-fold from the stock solution with PPI-Europium detection buffer. HTRF 96-well low volume white plate was used. The samples were made to the desired concentration and 2 µL was pipetted into the well. The 4 µL of Tag-1-PD-L1 solution (25 nM) was added, followed by 4 µL of Tag2-PD-1 solution (250 nM). 1X Anti-Tag1 Eu Cryptate reagent solution (25 nM|) and 1X Anti-Tag2 XL665 antibody solution (250 nM) were pre-mixed prior to dispensing 10 µL into the well, for a total volume of 20 µL. The plate was sealed and incubated for 1 hour at room temperature. Samples were analysed in triplicate. Once incubated, the plate was read using a CLARIOstar (BMG Labtech) microplate reader following manufacturer’s protocols for time resolved fluorescence (excitation filter EX-TR, emission filters 620 (10) nm, 665 (10) nm, dichoric mirror LP-TR, integration delay (lag time) 60 µs, integration time 400 µs, number of flashes 200, gain for white plate 2500).
The emission ratio was calculated for each well was calculated with the following equation:
Ratio = 665 nm Intensity […]
The “specific signal” (ΔR) is obtained by subtracting the background from the signal of each […]
∆R = RatioSample ‒ Ratiobackground […]
interaction. The data was fit to a three parameter logistic regression model with resulting R2 […]
On the day of analysis Raji-APC-nPD-L1 cell suspension ~100,000
(90 µL) was added to a 96 well plate containing test sample (1.8 µL), followed by Jurkat-Lucia TCR-hPD-1 cell suspension of ~200,000 (90 µL). The plate was incubated at 37 °C in a CO2 incubator for 6 hours. The co-cultured supernatant was transferred to 96-well clear bottomed […]
white plate. […]

PD-L1 = conditions: cited from earlier work
From the text: To determine where to insert AMPP, alanine scanning mutagenesis highlighted which amino acids were essential for inhibition using a homogenous time-resolved fluorescence (HTRF) binding assay (Cisbio).[38] From this Tyr5 and Trp7 were highlighted as being […] for inhibition (Fig. 2A). […] Photo-switchable peptides that have the potential to be switched “on” and “off” through structural changes, present an opportunity for externally controlled immune checkpoint inhibitors.

[2] = Thermal stability of 1 at 37 °C, analytical HPLC; type: physicochemical; conditions: after irradiation at 365 nm for 15 min, 1 mg/mL in IMDM with 10% FBS, Pen-Strep and Normocin, analytical HPLC every hour
Procedure: There was concern that during the cellular assay incubation at 37 °C may result in the azobenzene modified peptide relaxing back to the trans isomer. To determine whether 1 was thermally stable to continue with cellular assays, 1 was incubated at 37 °C for 8 h after irradiation at 365 nm for 15 minutes in buffer. […] To explore the activity of 1 in a cellular context, an immune checkpoint blockade assay was performed. The cell-based assay (InvivoGen) consists of Jurkat T cells that are engineered to express luciferase via T cell receptor (TCR) signalling and Raji cells engineered to express PD-L1 on the cell surface. If PD-L1 is bound to PD-1, the luciferase expression is inhibited. If the PD-1/PD-L1 interaction is inhibited, TCR signalling causes luciferase expression. As such, luciferase activity directly correlates to the PD-1/PD-L1 interaction, measured by luminescence following luciferin addition. […]
Figure 6 a) The analytical HPLC traces of 6 reading at 214 nm top: after irradiation at 365 nm for 20 minutes showing predominantly the cis isomer (74:26) bottom: after being exposed for 20 minutes of ambient light showing predominantly the […]
This assay was purchased from CisBio and was performed following the manufacturer’s protocol. […] Samples were analysed in triplicate. […]
The emission ratio was calculated for each well was calculated with the following equation: […]

T1 sequence (Q9NZQ7 19-238 limits assumed): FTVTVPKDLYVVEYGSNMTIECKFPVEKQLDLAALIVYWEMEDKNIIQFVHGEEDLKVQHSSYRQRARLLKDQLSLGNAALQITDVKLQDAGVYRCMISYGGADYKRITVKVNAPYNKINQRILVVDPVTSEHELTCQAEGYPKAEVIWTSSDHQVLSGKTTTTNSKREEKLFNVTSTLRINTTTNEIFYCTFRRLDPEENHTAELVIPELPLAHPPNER

SMILES	EC50 [1] [nM]	IC50 (PD-1/PD-L1 interaction) [nM]	Alanine scan of CLP003, inhibition of PD-1/PD-L1 (HTRF) at single concentration (PD-1/PD-L1 interaction)	other results
COc1cc(OCc2cccc(-c3ccccc3)c2C)cc(OC)c1CN1CCCC[C@H]1C(=O)O [BMS-1, reference compound]	3990	–	–	IC50 (PD-1/PD-L1): 76 nM
CC(=O)N[C@@H](Cc1c[nH]c2ccccc12)C(=O)N[C@@H](Cc1c[nH]cn1)C(=O)N[C@@H](Cc1ccccc1)C(=O)N[C@@H](CO)C(=O)N[C@@H](Cc1ccc(O)cc1)C(=O)N[C@@H](CC(N)=O)C(=O)N[C@@H](C)C(=O)N[C@@H](CCCNC(=N)N)C(=O)N[C@@H](Cc1c[nH]c2ccccc12)C(=O)N[C@@H](CC(C)C)C(=O)N1CCC[C@H]1C(=O)N1CCC[C@H]1C(N)=O [W7A] (Ac-WHFSYNARWLPP-NH2)	–	25	inhibiting PD-1/PD-L1	–
CC(=O)N[C@@H](Cc1c[nH]c2ccccc12)C(=O)N[C@@H](Cc1c[nH]cn1)C(=O)N[C@@H](Cc1ccccc1)C(=O)N[C@@H](CO)C(=O)N[C@@H](C)C(=O)N[C@@H](CC(N)=O)C(=O)N[C@@H](Cc1c[nH]c2ccccc12)C(=O)N[C@@H](CCCNC(=N)N)C(=O)N[C@@H](Cc1c[nH]c2ccccc12)C(=O)N[C@@H](CC(C)C)C(=O)N1CCC[C@H]1C(=O)N1CCC[C@H]1C(N)=O [Y5A] (Ac-WHFSANWRWLPP-NH2)	–	52	inhibiting PD-1/PD-L1	–

More lines, main results first:

EC50 [1] [nM]	IC50 (PD-1/PD-L1 interaction) [nM]	Alanine scan of CLP003, inhibition of PD-1/PD-L1 (HTRF) at single concentration (PD-1/PD-L1 interaction)	SMILES	other results
–	4680	–	CC(=O)N[C@@H](Cc1c[nH]c2ccccc12)C(=O)N[C@@H](Cc1c[nH]cn1)C(=O)N[C@@H](Cc1ccccc1)C(=O)N[C@@H](CO)C(=O)N[C@@H](Cc1ccc(O)cc1)C(=O)N[C@@H](CC(N)=O)C(=O)N[C@@H](Cc1c[nH]c2ccccc12)C(=O)N[C@@H](CCCNC(=N)N)C(=O)N[C@@H](Cc1c[nH]c2ccccc12)C(=O)N[C@@H](CC(C)C)C(=O)N1CCC[C@H]1C(=O)N1CCC[C@H]1C(N)=O [CLP003, reference compound] (Ac-WHFSYNWRWLPP-NH2)	Kd (PD-L1): 117 ± 80 nM
5580	–	–	CC(=O)N[C@@H](Cc1c[nH]c2ccccc12)C(=O)N[C@@H](Cc1c[nH]cn1)C(=O)N[C@@H](Cc1ccccc1)C(=O)N[C@@H](CO)C(=O)N[C@@H](Cc1ccc(O)cc1)C(=O)N[C@@H](CC(N)=O)C(=O)NCc1cccc(/N=N/c2cccc(CC(=O)N[C@@H](CCCNC(=N)N)C(=O)N[C@@H](Cc3c[nH]c4ccccc34)C(=O)N[C@@H](CC(C)C)C(=O)N3CCC[C@H]3C(=O)N3CCC[C@H]3C(N)=O)c2)c1 [compound 1] (Ac-WHFSYN[X1]RWLPP-NH2)	Thermal stability at 37 °C over 8 h (degradation / isomer state) [2]: no degradation while remaining predominantly the cis isomer; also recorded: no observable change; Inhibition of PD-1/PD-L1 (HTRF), trans isomer (PD-1/PD-L1 interaction; sample left in the dark (trans isomer), at up to 100 μM, detection buffer with 5% DMSO): no appreciable inhibition
